Measured values published in ChEMBL document CHEMBL1201862, “PubChem BioAssay data set” (2004).
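Cultured in 96-well plates, cells were exposed to test compound for 48 hours across five concentrations. Here, GI50 denotes the concentration required for 50% inhibition of growth.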 The source made the active and inactive calls. Cut-off read from the data, not from the text of the source: active = GI50 up to about 1.1 µM and inactive = higher.

Key:
Assay in all cases: NCI anticancer screen, dose series, 48 h
786-0 = system: 786-0
A498 = system: A498
A549 = system: A549
ACHN = system: ACHN
BT-549 = system: BT-549
CAKI-1 = system: CAKI-1
CCRF-CEM = system: CCRF-CEM
COLO 205 = system: COLO 205
DU-145 = system: DU-145
EKVX = system: EKVX
HCC 2998 = system: HCC 2998
HCT-116 = system: HCT-116
HCT-15 = system: HCT-15
HL-60 = system: HL-60
HOP-62 = system: HOP-62
HOP-92 = system: HOP-92
HT-29 = system: HT-29
Hs-578T = system: Hs-578T
IGROV-1 = system: IGROV-1
K562 = system: K562
KM12 = system: KM12
LOX IMVI = system: LOX IMVI
MCF7 = system: MCF7
MDA-MB-231 = system: MDA-MB-231
MDA-MB-435 = system: MDA-MB-435
MDA-N = system: MDA-N
MOLT-4 = system: MOLT-4
NCI-H226 = system: NCI-H226
NCI-H460 = system: NCI-H460
NCI-H522 = system: NCI-H522
NCI/ADR-RES = system: NCI/ADR-RES
OVCAR-3 = system: OVCAR-3
OVCAR-4 = system: OVCAR-4
OVCAR-5 = system: OVCAR-5
OVCAR-8 = system: OVCAR-8
PC-3 = system: PC-3
RPMI-8226 = system: RPMI-8226
RXF 393 = system: RXF 393
SF-295 = system: SF-295
SF-539 = system: SF-539
SK-MEL-28 = system: SK-MEL-28
SK-MEL-2 = system: SK-MEL-2
SK-MEL-5 = system: SK-MEL-5
SK-OV-3 = system: SK-OV-3
SN12C = system: SN12C
SNB-19 = system: SNB-19
SNB-75 = system: SNB-75
SR = system: SR
SW-620 = system: SW-620
T47D = system: T47D
TK-10 = system: TK-10
U-251 = system: U-251
UACC-257 = system: UACC-257
UACC-62 = system: UACC-62
M14 = system: M14
NCI-H23 = system: NCI-H23
SF-268 = system: SF-268
UO-31 = system: UO-31

## O=[N+]([O-])c1ccc2[nH]ncc2c1Cl
786-0
  GI50: 36.3 µM (inactive)
A498
  GI50: 74.6 µM (inactive)
A549
  GI50: 45 µM (inactive)
ACHN
  GI50: 24.7 µM (inactive)
BT-549
  GI50: 38.5 µM (inactive)
CAKI-1
  GI50: > 10 µM (inactive)
CCRF-CEM
  GI50: 46 µM (inactive)
COLO 205
  GI50: 13.4 µM (inactive)
DU-145
  GI50: 16.6 µM (inactive)
EKVX
  GI50: 20.6 µM (inactive)
HCC 2998
  GI50: 29.6 µM (inactive)
HCT-116
  GI50: 24 µM (inactive)
HCT-15
  GI50: 23.3 µM
HL-60
  GI50: 29.8 µM (inactive)
HOP-62
  GI50: 50.6 µM (inactive)
HOP-92
  GI50: 63 µM (inactive)
HT-29
  GI50: 17.9 µM (inactive)
Hs-578T
  GI50: 21.4 µM (inactive)
IGROV-1
  GI50: 18 µM (inactive)
K562
  GI50: 18.3 µM (inactive)
KM12
  GI50: 25.3 µM (inactive)
LOX IMVI
  GI50: 17.5 µM (inactive)
MCF7
  GI50: 41.7 µM (inactive)
MDA-MB-231
  GI50: 0.0108 µM (active)
MDA-MB-435
  GI50: 36.1 µM (inactive)
MDA-N
  GI50: 16.1 µM (inactive)
MOLT-4
  GI50: 22.8 µM (inactive)
NCI-H226
  GI50: 8.69 µM (inactive)
NCI-H460
  GI50: 33.1 µM (inactive)
NCI-H522
  GI50: 3.74 µM (inactive)
NCI/ADR-RES
  GI50: 26.5 µM (inactive)
OVCAR-3
  GI50: 33.8 µM (inactive)
OVCAR-4
  GI50: 26.8 µM (inactive)
OVCAR-5
  GI50: 23.6 µM (inactive)
OVCAR-8
  GI50: 27.5 µM (inactive)
PC-3
  GI50: 29.6 µM (inactive)
RPMI-8226
  GI50: 20.1 µM (inactive)
RXF 393
  GI50: 42.8 µM (inactive)
SF-295
  GI50: 86.3 µM (inactive)
SF-539
  GI50: 36.7 µM (inactive)
SK-MEL-28
  GI50: 33.5 µM (inactive)
SK-MEL-2
  GI50: 20.2 µM (inactive)
SK-MEL-5
  GI50: 13.3 µM (inactive)
SK-OV-3
  GI50: 53.5 µM (inactive)
SN12C
  GI50: 31.7 µM (inactive)
SNB-19
  GI50: 36.8 µM (inactive)
SNB-75
  GI50: 35.9 µM (inactive)
SR
  GI50: 1.03 µM (active)
SW-620
  GI50: 31.6 µM (inactive)
T47D
  GI50: 17.5 µM (inactive)
TK-10
  GI50: 83.6 µM (inactive)
U-251
  GI50: 42.5 µM (inactive)
UACC-257
  GI50: 31.2 µM (inactive)
UACC-62
  GI50: 34.2 µM (inactive)

## SC1CCCN(Cc2ccccc2)C1 (centres undefined)
786-0
  GI50: 35.7 µM (inactive)
A498
  GI50: 65.2 µM (inactive)
A549
  GI50: 53.7 µM (inactive)
ACHN
  GI50: 74.8 µM (inactive)
BT-549
  GI50: > 100 µM (inactive)
CAKI-1
  GI50: 74.1 µM (inactive)
COLO 205
  GI50: 17.9 µM (inactive)
DU-145
  GI50: > 100 µM (inactive)
EKVX
  GI50: > 100 µM (inactive)
HCC 2998
  GI50: 16.2 µM (inactive)
HCT-116
  GI50: 61.1 µM (inactive)
HCT-15
  GI50: 38.2 µM
HL-60
  GI50: 34.8 µM (inactive)
HOP-62
  GI50: > 100 µM (inactive)
HOP-92
  GI50: 60 µM (inactive)
HT-29
  GI50: 21 µM (inactive)
Hs-578T
  GI50: 78.5 µM (inactive)
IGROV-1
  GI50: 59.8 µM (inactive)
K562
  GI50: 23.8 µM (inactive)
KM12
  GI50: 34.1 µM (inactive)
LOX IMVI
  GI50: 16.5 µM (inactive)
M14
  GI50: 20 µM (inactive)
MCF7
  GI50: 20.8 µM (inactive)
MDA-MB-231
  GI50: 56.5 µM (inactive)
MDA-MB-435
  GI50: 31.6 µM (inactive)
MDA-N
  GI50: 59 µM (inactive)
MOLT-4
  GI50: 26.5 µM (inactive)
NCI-H226
  GI50: > 100 µM (inactive)
NCI-H23
  GI50: 25.6 µM (inactive)
NCI-H460
  GI50: 23.9 µM (inactive)
NCI-H522
  GI50: 35.7 µM (inactive)
NCI/ADR-RES
  GI50: > 100 µM (inactive)
OVCAR-3
  GI50: > 100 µM (inactive)
OVCAR-4
  GI50: 56.9 µM (inactive)
OVCAR-5
  GI50: > 100 µM (inactive)
OVCAR-8
  GI50: 46.1 µM (inactive)
PC-3
  GI50: 57.5 µM (inactive)
RPMI-8226
  GI50: 21.3 µM (inactive)
RXF 393
  GI50: > 100 µM (inactive)
SF-268
  GI50: 65.2 µM (inactive)
SF-295
  GI50: 61.1 µM (inactive)
SF-539
  GI50: > 100 µM (inactive)
SK-MEL-28
  GI50: 41.9 µM (inactive)
SK-MEL-2
  GI50: 36 µM (inactive)
SK-MEL-5
  GI50: 18.5 µM (inactive)
SK-OV-3
  GI50: > 100 µM (inactive)
SN12C
  GI50: 95.3 µM (inactive)
SNB-19
  GI50: > 100 µM (inactive)
SNB-75
  GI50: > 100 µM (inactive)
SR
  GI50: 27.9 µM (inactive)
SW-620
  GI50: 28.2 µM (inactive)
T47D
  GI50: 27.5 µM (inactive)
TK-10
  GI50: 69.7 µM (inactive)
U-251
  GI50: 33.4 µM (inactive)
UACC-257
  GI50: 32.4 µM (inactive)
UACC-62
  GI50: 44.8 µM (inactive)
UO-31
  GI50: 54.2 µM (inactive)

## Cc1ccc(S(=O)(=O)Nc2nc3ccccc3c(=O)n2C2CCCCC2)cc1
786-0
  GI50: > 100 µM (inactive)
A498
  GI50: > 100 µM (inactive)
A549
  GI50: > 100 µM (inactive)
ACHN
  GI50: > 100 µM (inactive)
BT-549
  GI50: 28.1 µM (inactive)
CAKI-1
  GI50: 81.3 µM (inactive)
CCRF-CEM
  GI50: > 100 µM (inactive)
COLO 205
  GI50: > 100 µM (inactive)
DU-145
  GI50: > 100 µM (inactive)
EKVX
  GI50: > 100 µM (inactive)
HCC 2998
  GI50: > 100 µM (inactive)
HCT-116
  GI50: > 100 µM (inactive)
HCT-15
  GI50: > 100 µM
HL-60
  GI50: 57.9 µM (inactive)
HOP-62
  GI50: > 100 µM (inactive)
HOP-92
  GI50: 67.5 µM (inactive)
HT-29
  GI50: > 100 µM (inactive)
Hs-578T
  GI50: 62.5 µM (inactive)
IGROV-1
  GI50: > 100 µM (inactive)
K562
  GI50: > 100 µM (inactive)
KM12
  GI50: > 100 µM (inactive)
LOX IMVI
  GI50: > 100 µM (inactive)
M14
  GI50: > 100 µM (inactive)
MCF7
  GI50: > 100 µM (inactive)
MDA-MB-231
  GI50: 78.3 µM (inactive)
MDA-MB-435
  GI50: > 100 µM (inactive)
MDA-N
  GI50: > 100 µM (inactive)
MOLT-4
  GI50: > 100 µM (inactive)
NCI-H226
  GI50: > 100 µM (inactive)
NCI-H23
  GI50: > 100 µM (inactive)
NCI-H460
  GI50: 97.1 µM (inactive)
NCI-H522
  GI50: 41.7 µM (inactive)
NCI/ADR-RES
  GI50: > 100 µM (inactive)
OVCAR-3
  GI50: 76.7 µM (inactive)
OVCAR-4
  GI50: 51.8 µM (inactive)
OVCAR-5
  GI50: > 100 µM (inactive)
OVCAR-8
  GI50: > 100 µM (inactive)
PC-3
  GI50: > 100 µM (inactive)
RPMI-8226
  GI50: > 100 µM (inactive)
RXF 393
  GI50: 68.2 µM (inactive)
SF-268
  GI50: > 100 µM (inactive)
SF-295
  GI50: 23.1 µM (inactive)
SF-539
  GI50: > 100 µM (inactive)
SK-MEL-28
  GI50: > 100 µM (inactive)
SK-MEL-2
  GI50: > 100 µM (inactive)
SK-MEL-5
  GI50: > 100 µM (inactive)
SK-OV-3
  GI50: > 100 µM (inactive)
SN12C
  GI50: > 100 µM (inactive)
SNB-19
  GI50: > 100 µM (inactive)
SNB-75
  GI50: 53.1 µM (inactive)
SR
  GI50: > 100 µM (inactive)
SW-620
  GI50: > 100 µM (inactive)
T47D
  GI50: > 100 µM (inactive)
TK-10
  GI50: > 100 µM (inactive)
U-251
  GI50: 90.2 µM (inactive)
UACC-257
  GI50: > 100 µM (inactive)
UACC-62
  GI50: 77.4 µM (inactive)
UO-31
  GI50: > 100 µM (inactive)
